Measured values from patent US10800801B2, “Crystalline platinum-based compounds” (AKAMARA THERAPEUTICS, INC., priority 2016, dated 2020).

Test: physchem
Assay type: physicochemical
Conditions: water, Approximate Solubility
Experimental: Despite this, the screen offered a list of suitable solvents/solvent mixtures and anti-solvents to be used for the crystallization experiments. Using information obtained from the initial investigation into the solubility of IO-125, a series of bench scale crystallization experiments were carried out in order to provide examples of solution-based crystallization method that yield crystalline IO-125. Within this investigation, a number of techniques were designed to find suitable crystallization conditions including: using controlled linear cooling of IO-125 in different solvents, anti-solvent additions, evaporations and seeding. […] A significant mass loss was then observed in thermogravimetric trace from approx. 270° C., and was coupled with a large endothermic event with onset of 288.4° C. and peak at 297.2° C. in the differential thermogram. Again, this is likely associated with the decomposition of IO-125.
Initially a series of solvents and mixture of solvents were screened to select suitable solvents for the crystallization procedure.

Question: Which solubility does the source give for `CC(C)CCC[C@@H](C)[C@H]1CCC2C3CC=C4C[C@@H](OCCN(CC(=O)[O-])CC(=O)[O][Pt+]5[NH][C@@H]6CCCC[C@H]6[NH]5)CC[C@]4(C)C3CC[C@@]21C` (stereo partly shown) [Comp 25] here?
Answer: ≤ 10000 µg/mL
